Assay results published in patent US9918972B2, “Treatment of leukemia with artemisinin derivatives and combinations with other antineoplastic agents” (UNIVERSITY OF MARYLAND, BALTIMORE, priority 2014, dated 2018).

Columns and labels:
MOLM14 cells [1] = test: Combinations of AS, ART-838 or DHA with BCL-2 inhibitors, alamarBlue, 48 h; type: cell-based, human
Protocol: FIGS. 11A-11C. Antileukemic efficacy of ABT-199, ABT-263 or ABT-737 combined with AS or ART-838. […] Each experiment was performed in triplicate.
FIG. 12. […] MOLM14 cells were treated with increasing concentrations of ABT-199, ABT-263 or ABT-737 without or with DHA (500 nM and 1 μM) for 48hrs. Then cytotoxicity was evaluated by alamarBlue assays. Each experiment was performed in triplicate.
(§1) MOLM14 or KOPN8 cells were seeded in 96-well plates as described above for alamarBlue assays. Cells were treated with a certain concentrations of AS, or ART-838 or DHA, in combination with a range of concentrations of ABT-199 or ABT-263 or ABT-737. AlamarBlue assays were performed as described above. Each set of drugs or drug combinations was tested in triplicate. Chou-Talalay drug combination analysis was performed as above.

MOLM14 and KOPN8 cells = test: Validation of ABT-199/ABT-737 + AS/ART-838 combinations, alamarBlue, Chou-Talalay; type: cell-based, human; settings: MOLM14 and KOPN8, AS or ART-838 at IC50, 48 h
Protocol: FIGS. 10A-10B. Validation of cytotoxicity of ABT-199/ABT-737+AS/ART-838 combinations by alamarBlue assay. […] Each experiment was performed in triplicate. All data points between 0.1-99.9% growth inhibition were analyzed using the methods of Chou and Talalay and combination indices (CIs) calculated. CIs were graphed against the fractional effect (FE; the fraction of cells inhibited at each concentration). CI<1 indicates synergy, CI=1, additivity, CI>1, antagonism.
as §1
Cytotoxicity of the individual drugs and combinations was assessed using alamarBlue fluorescence, a more sensitive indicator of cell metabolism (as a surrogate for cell number) than MTS.
Drug combination interactions were assessed using the methods of Chou-Talalay, a more robust measure of synergy than the Bliss independence model. The Chou-Talalay method, however, can only be used at drug effect levels from 0.1-99.9%. […]

MOLM14 cells [2] = test: Apoptosis (APC Annexin-V / 7-AAD, FACS); type: cell-based, human; settings: MOLM14, ABT-199 plus AS or ART-838, 24 hrs
Protocol: FIG. 13. […] MOLM14 cells were treated with ABT-199 and/or AS (upper panel) or ART-838 (lower panel) for 24 hrs. Cells were stained with APC Annexin-V and 7-AAD and analyzed by fluorescence-activated cell sorting (FACS) to assess apoptotic cells. The early apoptotic population was defined as APC Annexin-V (+) and 7-AAD (−). The total apoptotic population was defined as APC Annexin-V (+). Each experiment was performed in triplicate. […].
Drug or vehicle-treated cells (1-5×10^5/sample) were washed with cold PBS, resuspended in Annexin-V binding buffer, co-stained with 5 μl each of APC Annexin-V and 7-AAD viability dye (all from BioLegend, San Diego, Calif.), and incubated for 15 minutes at room temperature in the dark then stored on ice until analysis (<30 minutes). Stained cells were analyzed using the FL3 and FL4 channels of an Accuri C6 flow cytometer. ˜10,000 non-debris cellular events were collected per sample and analyzed, as for cell cycle. The Annexin-V^−/7-AAD^− population was designated “viable,” the Annexin-V^+/7-AAD^− population was designated “early apoptotic,” and the Annexin-V^+/7-AAD^+ population was designated “dying/dead” [47].

MOLM14 = test: Kinase inhibitor drug combination screen (MTS, Bliss-independence analysis)
KOPN8 = test: as above
RCH-ACV = test: as above
[3] = system: MOLM14, Kasumi-1, KOPN8 and RCH-ACV leukemia cell lines; test: Kinase inhibitor drug combination screen, summary over the four leukemia cell lines; settings: for No. Cell Lines: cell lines synergistically inhibited (>10% over Bliss) by drug 1 combined with AS and/or ART-838; for average inhibition over the Bliss prediction: plus ART-838, average over synergistic cell lines; for average inhibition over the Bliss independence prediction: average over synergistic cell lines; for synergy with AS or ART-838: screens in four human leukemia cell lines
Kasumi-1 = test: Kinase inhibitor drug combination screen (MTS, Bliss-independence analysis); settings: Kasumi-1, Drug 2 = ART-838 at approximate IC50, 48 h
MOLM14 cells [4] = test: ROS - mitochondrial superoxide (MitoSOX flow cytometry); type: cell-based, human; settings: MOLM14, drug alone, 2.25x IC50, 16 h
Protocol: FIGS. 4A-4D. […] CIs were computed as described above. CI<1 indicates synergy, CI=1, additivity, CI>1, antagonism. […] Cells were then loaded with 5 μM MitoSox for 30 min, washed, and analyzed by flow cytometry for MitoSox fluorescence (indicating mitochondrial superoxide) in the FL2 channel. […] Error bars represent the SEM of three independent experiments.

[5] = system: chemotherapy (doxorubicin, hydroxyurea, methotrexate, or vincristine)-resistant CEM (T-ALL) sub-lines; settings: reference [27]; cited from earlier work
[6] = MOLM14, Drug 2 = ART-838 at approximate IC50, 48 h
[7] = MOLM14, Drug 2 = AS at approximate IC50, 48 h
[8] = KOPN8, Drug 2 = ART-838 at approximate IC50, 48 h
[9] = KOPN8, Drug 2 = AS at approximate IC50, 48 h
[10] = Drug 2 = ART-838 at approximate IC50, 48 h
[11] = Drug 2 = AS at approximate IC50, 48 h

fractional inhibition over Bliss prediction (MOLM14; [6])	fractional inhibition over Bliss prediction (MOLM14; [7])	fractional inhibition over Bliss prediction (KOPN8; [8])	fractional inhibition over Bliss prediction (KOPN8; [9])	fractional inhibition over Bliss prediction (RCH-ACV; [10])	fractional inhibition over Bliss prediction (RCH-ACV; [11])	fractional inhibition over Bliss prediction (Kasumi-1)	Compound	leukemia cell growth inhibition (MOLM14 cells [1]; MOLM14, 37 nM ABT-199 alone)	growth inhibition (MOLM14 cells [1]; MOLM14, 37 nM ABT-199 together with ART-838 25 nM)	growth inhibition (MOLM14 cells [1]; MOLM14, 37 nM ABT-199 together with AS 825 nM)	cytotoxic efficacy on addition of AS or ART-838 (MOLM14 and KOPN8 cells)	induction of apoptosis (MOLM14 cells [2])	No. Cell Lines [3]	cell lines in which combination was synergistic ([3]; plus ART-838)	average inhibition over the Bliss prediction [3]	cell lines in which combination was synergistic ([3]; plus AS)	average inhibition over the Bliss independence prediction ([3]; plus AS)	synergy with AS or ART-838 [3]	mitochondrial superoxide (MitoSox MFI) (MOLM14 cells [4])	efficacy against resistant sub-lines vs parental line [5]
MOLM14 (0.18),	MOLM14 (0.20),	KOPN8 (0.11),	KOPN8 (0.15),	RCH-ACV (0.35)	RCH-ACV (0.16)		CC1(C)CCC(CN2CCN(c3ccc(C(=O)NS(=O)(=O)c4ccc(NCC5CCOCC5)c([N+](=O)[O-])c4)c(Oc4cnc5[nH]ccc5c4)c3)CC2)=C(c2ccc(Cl)cc2)C1 [ABT-199]	did not inhibit	100%	100%	potently increased the efficacy	cooperated to induce apoptosis	3/4	3/4	21%	3/4	17%	Particularly strong synergy		
MOLM14 (0.34),	MOLM14 (0.50),	KOPN8 (0.28),	KOPN8 (0.25),	RCH-ACV (0.24)	RCH-ACV (0.23)	Kasumi-1 (0.11),	CN(C)CC[C@H](CSc1ccccc1)Nc1ccc(S(=O)(=O)NC(=O)c2ccc(N3CCN(Cc4ccccc4-c4ccc(Cl)cc4)CC3)cc2)cc1[N+](=O)[O-] [ABT-737]				potently increased the efficacy		4/4	4/4	24%	3/4	33%	Particularly strong synergy		
							C[C@H]1[C@H](OC(=O)CCC(=O)O)O[C@@H]2O[C@@]3(C)CC[C@H]4[C@H](C)CC[C@@H]1[C@@]24OO3 [AS, artesunate]												increased	as effective
